# Assay results as given in patent publication US20260116920A1, “HUMAN TRANSFERRIN RECEPTOR BINDING PEPTIDE” (PEPTIDREAM INC., priority 2021, published 2026).
# Positions of bridges follow the written chain, without caps; N, C: chain ends. Non-standard residues stand in square brackets, D forms with d. Residues, ends and D or L forms follow the SMILES beside them. *: point of attachment. Trp(1-CH2COOH) = N[C@@H](Cc1cn(CC(=O)O)c2ccccc12)C(=O)O; Phe(3-COOH) = N[C@@H](Cc1cccc(C(=O)O)c1)C(=O)O; NH(CH2CH2O)8Me = COCCOCCOCCOCCOCCOCCOCCOCCN*; NMePhe(3-Cl) = CN[C@@H](Cc1cccc(Cl)c1)C(=O)O; 3Pal(6-NH2) = Nc1ccc(C[C@H](N)C(=O)O)cn1; NMeY = CN[C@@H](Cc1ccc(O)cc1)C(=O)O; 3Pal = N[C@@H](Cc1cccnc1)C(=O)O; 4Pal = N[C@@H](Cc1ccncc1)C(=O)O; PEG4 = NCCOCCOCCOCCOCCC(=O)O; Carboxymethyl = O=C(O)C*
# Target: T1, human transferrin receptor (hTfR) (Homo sapiens, UniProt P02786)
# T1 construct: made in house
# Assay: Evaluation of molecular interaction between transferrin receptor (hTfR) and peptide using surface plasmon resonance (SPR)
# Type: binding
# Conditions: surface plasmon resonance, binding to hTfR; KD class symbol; read-out: SPR (KD value)
# Procedure, shortened: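 SPR, single-cycle kinetics; hTfR dimer on NTA chip via Ni capture plus EDC/NHS coupling. Analyte peptide 100, 50, 25, 10, 5 nM. Running buffer: 10 mM HEPES pH 8.0, 150 mM NaCl, 0.05% Tween 20, 0.1% BSA, 1.0% DMSO. KD by least-squares fit.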
# T1 sequence (P02786 89-760 limits assumed): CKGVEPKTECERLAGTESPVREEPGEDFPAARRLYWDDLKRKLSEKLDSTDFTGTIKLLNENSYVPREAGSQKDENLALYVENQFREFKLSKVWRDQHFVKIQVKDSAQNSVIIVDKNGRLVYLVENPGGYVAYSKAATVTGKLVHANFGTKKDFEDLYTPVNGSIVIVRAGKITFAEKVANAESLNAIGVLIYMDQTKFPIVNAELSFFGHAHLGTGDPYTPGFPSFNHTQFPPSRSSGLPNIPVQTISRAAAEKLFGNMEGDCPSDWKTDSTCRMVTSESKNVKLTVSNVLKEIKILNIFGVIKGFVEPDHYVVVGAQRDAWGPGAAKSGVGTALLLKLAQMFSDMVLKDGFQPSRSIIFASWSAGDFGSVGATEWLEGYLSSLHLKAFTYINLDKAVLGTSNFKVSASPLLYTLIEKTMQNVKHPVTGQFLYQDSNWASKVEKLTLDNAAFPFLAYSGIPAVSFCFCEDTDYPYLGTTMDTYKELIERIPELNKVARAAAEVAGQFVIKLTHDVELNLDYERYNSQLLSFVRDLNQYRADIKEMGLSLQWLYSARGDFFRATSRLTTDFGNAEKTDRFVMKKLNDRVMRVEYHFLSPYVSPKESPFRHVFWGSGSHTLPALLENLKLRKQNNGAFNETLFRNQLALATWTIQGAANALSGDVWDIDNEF
row,SMILES,Kd
1,CC[C@H](C)[C@@H]1NC(=O)[C@H](Cc2cccnc2)NC(=O)[C@H](Cc2ccc(O)cc2)NC(=O)[C@H](CC(N)=O)NC(=O)[C@H](Cc2cn(CC(=O)O)c3ccccc23)NC(=O)[C@H](C(C)C)NC(=O)[C@H](Cc2cccc(Cl)c2)N(C)C(=O)[C@H](C(C)C)NC(=O)[C@H](C)NC(=O)CSC[C@@H](C(=O)NCCOCCOCCOCCOCCC(N)=O)NC(=O)[C@H](Cc2ccc(O)cc2)N(C)C(=O)[C@H](Cc2ccccc2)NC(=O)[C@H](CCC(=O)NCCOCCOCCOCCOCCOCCOCCOCCOC)NC(=O)[C@H](CCCNC(=N)N)NC(=O)[C@H]([C@@H](C)CC)NC1=O [compound 73] ({CH2CO}-AV[NMePhe(3-Cl)]V[Trp(1-CH2COOH)]NY[3Pal]IIRE(NH(CH2CH2O)8Me)F[NMeY]C[PEG4]-NH2; thioether N-15),1 to 100 nM
2,CC[C@H](C)[C@@H]1NC(=O)[C@H](Cc2ccc(OCC(=O)O)cc2)NC(=O)[C@H](Cc2ccc(O)cc2)NC(=O)[C@H](CC(N)=O)NC(=O)[C@H](Cc2cn(CC(=O)O)c3ccccc23)NC(=O)[C@H](C(C)C)NC(=O)[C@H](Cc2cccc(Cl)c2)N(C)C(=O)[C@H](C(C)C)NC(=O)[C@H](C)NC(=O)CSC[C@@H](C(=O)NCCOCCOCCOCCOCCC(N)=O)NC(=O)[C@H](Cc2ccc(O)cc2)N(C)C(=O)[C@H](Cc2ccncc2)NC(=O)[C@H](CCCNC(=N)N)NC(=O)[C@H](CCCNC(=N)N)NC(=O)[C@H]([C@@H](C)CC)NC1=O [compound 76],1 to 100 nM
3,CC[C@H](C)[C@@H]1NC(=O)[C@H](Cc2ccc(OC)cc2)NC(=O)[C@H](Cc2ccc(O)cc2)NC(=O)[C@H](CC(N)=O)NC(=O)[C@H](Cc2cn(CC(=O)O)c3ccccc23)NC(=O)[C@H](C(C)C)NC(=O)[C@H](Cc2cccc(Cl)c2)N(C)C(=O)[C@H](C(C)C)NC(=O)[C@H](C)NC(=O)CSC[C@@H](C(=O)NCCOCCOCCOCCOCCC(N)=O)NC(=O)[C@H](Cc2ccc(O)cc2)N(C)C(=O)[C@H](Cc2cccc(C(=O)O)c2)NC(=O)[C@H](CCC(=O)NCCOCCOCCOCCOCCOCCOCCOCCOC)NC(=O)[C@H](CCCNC(=N)N)NC(=O)[C@H]([C@@H](C)CC)NC1=O [compound 77] ({CH2CO}-AV[NMePhe(3-Cl)]V[Trp(1-CH2COOH)]NYY(Me)IIRE(NH(CH2CH2O)8Me)[Phe(3-COOH)][NMeY]C[PEG4]-NH2; thioether N-15),1 to 100 nM
4,CC[C@H](C)[C@@H]1NC(=O)[C@H](Cc2ccc(OC)cc2)NC(=O)[C@H](Cc2ccc(O)cc2)NC(=O)[C@H](CC(N)=O)NC(=O)[C@H](Cc2cn(CC(=O)O)c3ccccc23)NC(=O)[C@H](C(C)C)NC(=O)[C@H](Cc2cccc(Cl)c2)N(C)C(=O)[C@H](C(C)C)NC(=O)[C@H](C)NC(=O)CSC[C@@H](C(=O)NCCOCCOCCOCCOCCC(N)=O)NC(=O)[C@H](Cc2ccc(O)cc2)N(C)C(=O)[C@H](Cc2ccncc2)NC(=O)[C@H](CCC(=O)NCCOCCOCCOCCOCCOCCOCCOCCOC)NC(=O)[C@H](CCCNC(=N)N)NC(=O)[C@H]([C@@H](C)CC)NC1=O [compound 78] ({CH2CO}-AV[NMePhe(3-Cl)]V[Trp(1-CH2COOH)]NYY(Me)IIRE(NH(CH2CH2O)8Me)[4Pal][NMeY]C[PEG4]-NH2; thioether N-15),1 to 100 nM
5,CC[C@H](C)[C@@H]1NC(=O)[C@H](Cc2ccc(OCC(=O)O)cc2)NC(=O)[C@H](Cc2ccc(N)nc2)NC(=O)[C@H](CC(N)=O)NC(=O)[C@H](Cc2cn(CC(=O)O)c3ccccc23)NC(=O)[C@H](C(C)C)NC(=O)[C@H](Cc2cccc(Cl)c2)N(C)C(=O)[C@H](C(C)C)NC(=O)[C@H](C)NC(=O)CSC[C@@H](C(=O)NCCOCCOCCOCCOCCC(N)=O)NC(=O)[C@H](Cc2ccc(O)cc2)N(C)C(=O)[C@H](Cc2ccncc2)NC(=O)[C@H](CCCNC(=N)N)NC(=O)[C@H](CCCNC(=N)N)NC(=O)[C@H]([C@@H](C)CC)NC1=O [compound 80],1 to 100 nM
6,CC[C@H](C)[C@@H]1NC(=O)[C@H](Cc2ccc(OCC(=O)O)cc2)NC(=O)[C@H](Cc2ccc(N)nc2)NC(=O)[C@H](CC(N)=O)NC(=O)[C@H](Cc2cn(CC(=O)O)c3ccccc23)NC(=O)[C@H](C(C)C)NC(=O)[C@H](Cc2cccc(Cl)c2)N(C)C(=O)[C@H](C(C)C)NC(=O)[C@H](C)NC(=O)CSC[C@@H](C(=O)NCCOCCOCCOCCOCCC(N)=O)NC(=O)[C@H](Cc2ccc(O)cc2)N(C)C(=O)[C@H](Cc2cccc(C(=O)O)c2)NC(=O)[C@H](CCCNC(=N)N)NC(=O)[C@H](CCCNC(=N)N)NC(=O)[C@H]([C@@H](C)CC)NC1=O [compound 81] ({CH2CO}-AV[NMePhe(3-Cl)]V[Trp(1-CH2COOH)]N[3Pal(6-NH2)]Y(Carboxymethyl)IIRR[Phe(3-COOH)][NMeY]C[PEG4]-NH2; thioether N-15),1 to 100 nM

# More lines, now with the values ahead:
row,Kd,SMILES
1,1 to 100 nM,CC[C@H](C)[C@@H]1NC(=O)[C@H](Cc2cccnc2)NC(=O)[C@H](Cc2ccc(O)cc2)NC(=O)[C@H](CC(N)=O)NC(=O)[C@H](Cc2cn(CC(=O)O)c3ccccc23)NC(=O)[C@H](C(C)C)NC(=O)[C@H](Cc2cccc(Cl)c2)N(C)C(=O)[C@H](C(C)C)NC(=O)[C@H](C)NC(=O)CSC[C@@H](C(=O)NCCOCCOCCOCCOCCC(N)=O)NC(=O)[C@H](Cc2ccc(O)cc2)N(C)C(=O)[C@H](Cc2cccc(C(=O)O)c2)NC(=O)[C@H](CCCNC(=N)N)NC(=O)[C@H](CCCNC(=N)N)NC(=O)[C@H]([C@@H](C)CC)NC1=O [compound 74] ({CH2CO}-AV[NMePhe(3-Cl)]V[Trp(1-CH2COOH)]NY[3Pal]IIRR[Phe(3-COOH)][NMeY]C[PEG4]-NH2; thioether N-15)
2,1 to 100 nM,CC[C@H](C)[C@@H]1NC(=O)[C@H](Cc2ccc(OCC(=O)O)cc2)NC(=O)[C@H](Cc2ccc(O)cc2)NC(=O)[C@H](CC(N)=O)NC(=O)[C@H](Cc2cn(CC(=O)O)c3ccccc23)NC(=O)[C@H](C(C)C)NC(=O)[C@H](Cc2cccc(Cl)c2)N(C)C(=O)[C@H](C(C)C)NC(=O)[C@H](C)NC(=O)CSC[C@@H](C(=O)NCCOCCOCCOCCOCCC(N)=O)NC(=O)[C@H](Cc2ccc(O)cc2)N(C)C(=O)[C@H](Cc2cccc(C(=O)O)c2)NC(=O)[C@H](CCCNC(=N)N)NC(=O)[C@H](CCCNC(=N)N)NC(=O)[C@H]([C@@H](C)CC)NC1=O [compound 75]
3,1 to 100 nM,CC[C@H](C)[C@@H]1NC(=O)[C@H](Cc2cccnc2)NC(=O)[C@H](Cc2ccc(N)nc2)NC(=O)[C@H](CC(N)=O)NC(=O)[C@H](Cc2cn(CC(=O)O)c3ccccc23)NC(=O)[C@H](C(C)C)NC(=O)[C@H](Cc2cccc(Cl)c2)N(C)C(=O)[C@H](C(C)C)NC(=O)[C@H](C)NC(=O)CSC[C@@H](C(=O)NCCOCCOCCOCCOCCC(N)=O)NC(=O)[C@H](Cc2ccc(O)cc2)N(C)C(=O)[C@H](Cc2cccc(C(=O)O)c2)NC(=O)[C@H](CCCNC(=N)N)NC(=O)[C@H](CCCNC(=N)N)NC(=O)[C@H]([C@@H](C)CC)NC1=O [compound 79] ({CH2CO}-AV[NMePhe(3-Cl)]V[Trp(1-CH2COOH)]N[3Pal(6-NH2)][3Pal]IIRR[Phe(3-COOH)][NMeY]C[PEG4]-NH2; thioether N-15)
